Assay [1] has as its system Flp-In™ T-REx™-293 cells. Description: Succinate oxidation by digitonin-permeabilized cells, Clark oxygen electrode. The following applies: AOX-induced cells. It is filed as cell-based, human.
The test system of assay [2] is Flp-In™ T-REx™-293 cells. The experiment in a line: Respiration of digitonin-permeabilized transduced or transfected cells. As to conditions: 10 µM n-propyl gallate. Type of assay: cell-based, human.
A further assay concerns Drosophila mitochondria. Type of assay: biochemical, Drosophila melanogaster.

Each structure is given as a SMILES string.

For `CCCOC(=O)c1cc(O)c(O)c(O)c1` [n-propyl gallate], the “inhibition of cyanide-resistant succinate oxidation” value in the assay with Flp-In™ T-REx™-293 cells [1] (100 µM propyl gallate added after cyanide) was “fully inhibited”. Also, the “inhibition of oxygen uptake” value in the assay on Flp-In™ T-REx™-293 cells [1] (propyl gallate in the absence of cyanide) is listed as 5%. In the assay on Flp-In™ T-REx™-293 cells [2] (pWPI-AOX-transduced cells), the “inhibition of residual respiration in the presence of cyanide” value is recorded as “completely inhibited”. Besides, the “inhibition of respiration in the presence of cyanide” value in the assay on Flp-In™ T-REx™-293 cells [2] (pcDNA5-AOX-transfected cells) is recorded as “almost completely inhibited”. In the assay on Drosophila mitochondria, the “effect of AOX inhibitors on respiration” value is “only a small effect” and the “sensitivity of residual cyanide-insensitive respiratory activity to AOX inhibitors” value was “sensitive”.
